Reference: patent US5389661A, “Imidazole and 1,2,4-triazole derivatives with angiotensin II antagonist properties” (Warner-Lambert Company, priority 1994, dated 1995)

The compounds below were run against T1, angiotensin II receptor (rat liver membranes) (Rattus norvegicus, UniProt P25095) (assay: RBAT1, Receptor Binding of Angiotensin II: inhibition of tritiated angiotensin II binding to rat liver membranes). Conditions: in vitro.
T1 construct: from tissue; host or cells: rat liver membranes
T1 sequence (P25095 1-359): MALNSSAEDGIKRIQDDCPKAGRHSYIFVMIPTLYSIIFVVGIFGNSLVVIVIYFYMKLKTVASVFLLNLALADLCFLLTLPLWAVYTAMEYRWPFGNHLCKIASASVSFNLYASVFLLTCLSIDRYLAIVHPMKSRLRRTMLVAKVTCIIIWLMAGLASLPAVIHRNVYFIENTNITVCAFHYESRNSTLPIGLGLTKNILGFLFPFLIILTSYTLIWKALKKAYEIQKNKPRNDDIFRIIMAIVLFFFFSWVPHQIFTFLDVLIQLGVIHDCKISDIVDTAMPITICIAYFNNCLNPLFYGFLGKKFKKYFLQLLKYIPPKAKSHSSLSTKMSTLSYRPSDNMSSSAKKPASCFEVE
Procedure: The effectiveness of the compounds of the instant invention is determined by a test (RBAT1) entitled Receptor Binding of Angiotensin II.

Point of comparison: `CCCCc1ncc(C=C2C(=O)Nc3c(OC)cccc32)n1Cc1ccc(C(=O)O)cc1` [Example 3B, 4-[[2-Butyl-5-[(1,2-dihydro-7-methoxy-2-oxo-3H-indol-3-ylidene)methyl]-1H-imidazol-1-yl]methyl]benzoic acid], IC50 120 nM. Against it:
- CCCc1ncc(/C=C2\C(=O)N(C(CCC)C(=O)OCC)c3cccc(C)c32)n1Cc1ccc(C(=O)OC)cc1 (racemic) [Example 4I, Ethyl (Z)-(±)-2,3,dihydro-3-[[3-[[4-(methoxycarbonylphenyl]methyl]-2-propyl-3H-imidazol-4-yl]methylene]-4-methyl-2-oxo-α-propyl-1H-indole-1-acetat] — 2.5-fold higher, 300 nM
- CCCCc1ncc(CC2C(=O)Nc3ccccc32)n1Cc1ccc(C(=O)OC)cc1 (racemic) [Example 10, Benzoic acid, 4-[[2-butyl-5-[(2,3-dihydro-2-oxo-1H-indol-3-yl)methyl]-1H-imidazol-1-yl]methyl]-, methyl ester, (±)] — 2.3-fold lower, 53 nM
- CCCc1ncc(C=C2C(=O)N(C)c3ccccc32)n1Cc1ccc(C(=O)OC)cc1 [Example 1D, Methyl 4-[[2-propyl-5-[(1,2-dihydro-1-methyl-2-oxo-3H-indol-3-ylidene)methyl]-1H-imidazol-1-yl]methyl]benzoate] — 1.6-fold lower, 75 nM
- CCCc1ncc(C=C2C(=O)N(C(=O)NC)c3ccccc32)n1Cc1ccc(C(=O)OC)cc1 [Example 2B, Methyl 4-[[(2-propyl-5-[1,2-dihydro-1-(methylaminocarbonyl)-2-oxo-3H-indol-3-ylidene]methyl]-1H-imidazol-1-yl]methyl benzoate] — 5.1-fold higher, 610 nM
- CCCCc1ncc(C=C2C(=O)N(O)c3ccccc32)n1Cc1ccc(C(=O)OC)cc1 [Example 2C] — 1.7-fold higher, 201 nM
- CCCc1nc(-n2cccc2)c(/C=C2/C(=O)Nc3ccccc32)n1Cc1ccc(C(=O)O)cc1 [Example 2D, (E)-4-[[5-[(1,2-dihydro-2-oxo-3H-indol-3-ylideny)methyl]-2-propyl-4-(1H-pyrrol-1-yl)-1H-imidazol-1-yl]methyl]benzoic acid] — within 1.5-fold, 86 nM
- CCCc1ncc(/C=C2\C(=O)N(C(C)C)c3ccccc32)n1Cc1ccc(C(=O)OC)cc1 [Example 2F, Benzoic acid, 4-[[5-[[2,3-dihydro-1-(1-methylethyl)-2-oxo-1H-indol-3-ylidene]methyl]. -2-propyl-1H-imidazol-1-yl]methyl]-, methyl ester, (Z)] — 1.8-fold lower, 67 nM
- CCCc1ncc(C=C2C(=O)N(CCC)c3ccccc32)n1Cc1ccc(C(=O)OC)cc1 [Example 2G, Methyl 4-[[5-[(1,2-dihydro-2-oxo-1-propyl-3H-indol-3-ylidenyl)methyl]-2-propyl-1H-imidazol-1-yl]methyl]benzoate] — 6.2-fold higher, 746 nM
- CCCCc1ncc(C=C2C(=O)Nc3ccccc32)n1Cc1ccc(C(=O)O)cc1 [Example 3, 4-[[2-Butyl-5-[(1,12-dihydro-2-oxo-3H-indol-3-ylidene)methyl]-1H-imidazol-1-yl]methyl]benzoic acid] — within 1.5-fold, 170 nM
- CCCCc1nc(Cl)c(/C=C2/C(=O)Nc3ccccc32)n1Cc1ccc(C(=O)O)cc1 [Example 3A, (E)-4-[[2-Butyl-4-chloro-5-[(1,2-dihydro-2-oxo-3H-indol-3-ylidene)]-1H-imidazol-1-yl]methyl]benzoic acid] — within 1.5-fold, 140 nM
- CCCCc1ncc(C=C2C(=O)N(CC(=O)O)c3ccccc32)n1Cc1ccc(C(=O)O)cc1 [Example 3C, 3-[[2-Butyl-1-[(4-carboxyphenyl)methyl]-1H-imidazol-5-yl]methylene]-2,3-dihydro-2-oxo-1H-indole-1-acetic acid] — 5.5-fold lower, 22 nM
- CCCCc1ncc(C=C2C(=O)N(O)c3ccccc32)n1Cc1ccc(C(=O)O)cc1 [Example 3F] — within 1.5-fold, 123 nM
- CCCCc1ncc(/C=C2/C(=O)N(CCC(=O)O)c3ccccc32)n1Cc1ccc(C(=O)O)cc1 [Example 3G, 1H-Indole-1-propanoic acid, 3-[[2-butyl-1-[(4-carboxyphenyl)methyl]-1H-imidazol-5-yl]methylene]-2,3-dihydro-2-oxo -, (E)] — 6-fold lower, 20 nM
- CCCCc1ncc(C=C2C(=O)N(CCCC)c3ccccc32)n1Cc1ccc(C(=O)O)cc1Cl [Example 3H, 4-[[2-butyl-5-[(1-butyl-1,2-dihydro-2-oxo-3H-indol-3-ylidenyl)methyl]-1H-imidazol-1-yl]methyl]-3 chlorobenzoic acid] — 2.3-fold lower, 52 nM
- CCCc1ncc(C=C2C(=O)N(CCC)c3ccccc32)n1Cc1ccc(C(=O)O)cc1 [Example 3I, 4-[[5-[(1,2-dihydro-2-oxo-1-propyl-3H-indol-3-ylidenyl)methyl]-2-propyl-1H-imidazol-1-yl]methyl]benzoic acid] — within 1.5-fold, 140 nM
- CCCCN1C(=O)/C(=C/c2c(-n3cccc3)nc(CCC)n2Cc2ccc(C(=O)OC)cc2)c2ccccc21 [Example 4, Benzoic acid, 4-[[5-[(1-butyl-2,3-dihydro-2-oxo-1H-indol-3-ylidene)methyl]-2=propyl-4=(1H-pyrrol-1-yl)-1H-imidazol-1-yl]methyl]-, methyl ester, (E)] — 4.9-fold higher, 590 nM
- CCCc1nc(-n2cccc2)c(/C=C2/C(=O)N(C)c3ccccc32)n1Cc1ccc(C(=O)OC)cc1 [Example 4A, Benzoic acid, 4-[[5-[(2,3-dihydro-1-methyl-2-oxo-1H-indol-3-ylidene)methyl]-2-propyl-4-(1H-pyrrol-1-yl)-1H-imidazol-1-yl]methyl]-, methyl ester, (E)] — 5.3-fold higher, 640 nM
- CCCc1nc(-n2cccc2)c(/C=C2/C(=O)N(CC(=O)OC)c3ccccc32)n1Cc1ccc(C(=O)OC)cc1 [Example 4B, 1H-Indole-1-acetic acid, 2,3-dihydro-3-[[1-[[4-(methoxycarbonyl)phenyl]methyl]-2-propyl-4-(1H-pyrrol-1-yl)-1H-imidazol-5-yl]methylene]-2-oxo-, methyl ester, (E)] — within 1.5-fold, 95 nM
- CCCCc1ncc(C=C2C(=O)N(CCCC)c3ccccc32)n1Cc1ccc(C(=O)OC)cc1 [Example 4C, Benzoic acid, 4-[[2-butyl-5-[(1-butyl-2,3-dihydro-2-oxo-1H-indol-3-ylidene)methyl]-1H-imidazol-1-yl]methyl]-, methyl ester] — 3-fold higher, 358 nM
- CCCCc1ncc(/C=C2/C(=O)N(Cc3ccc(Cl)cc3)c3ccccc32)n1Cc1ccc(C(=O)O)cc1 [Example 4F, Benzoic acid, 4-[[2-butyl-5-[[1-[(4-chlorophenyl)methyl]-2,3-dihydro-2-oxo-1H-indol-3-ylidene]methyl]-1H-imidazol-1-yl]methyl]-, (E)] — 2.1-fold higher, 256 nM
- CCCCc1ncc(C=C2C(=O)N(OCC(=O)OC)c3ccccc32)n1Cc1ccc(C(=O)OC)cc1 [Example 4G] — 1.9-fold lower, 64 nM
- CCCCc1ncc(C=C2C(=O)N(CC#N)c3ccccc32)n1Cc1ccc(C(=O)OC)cc1 [Example 4H, Benzoic acid, 4-[[2-butyl-5-[[1-(cyanomethyl)-2,3-dihydro-2-oxo-1H-indol-3-ylidene]methyl]-1H-imidazol-1-yl]methyl]-, methyl ester, (E)] — 1.9-fold higher, 226 nM
- CCCc1ncc(/C=C2\C(=O)N(CC(=O)OC)c3cccc(C)c32)n1Cc1ccc(C(=O)OC)cc1 [Example 4J, Methyl (Z)-2,3-dihydro-3-[[3-[[4-methoxycarbonylphenyl]methyl]-2-propyl-3H-imidazol-4-yl]methylene]-4-methyl-2-oxo-1H-indole-1-acetate] — 5.7-fold higher, 686 nM
- CCCCc1ncc(C=C2C(=O)N(CCCC)c3ccccc32)n1Cc1ccc(C(=O)OC)cc1Cl [Example 4K, Methyl 4-[[2-butyl-5-[(1-butyl-1,2-dihydro-2-oxo-3H-indol-3-yliden)methyl]-1H-imidazolyl]methyl]-3-chlorobenzoate] — within 1.5-fold, 110 nM
- CCCCc1ncc(C=C2C(=O)N(Cc3nn[nH]n3)c3ccccc32)n1Cc1ccc(C(=O)OC)cc1 [Example 5, Benzoic acid, 4-[[2-butyl-5-[[2,3-dihydro-2-oxo-1-(1H-tetrazol-5-ylmethyl)-1H-indol-3-ylidene]methyl]-1H-imidazol-1-yl]methyl]-, methyl ester, (E)] — within 1.5-fold, 94 nM
- CCCCc1ncc(C=C2C(=O)N(CC(=O)OC)c3ccccc32)n1Cc1ccc(-c2nn[nH]n2)cc1 [Example 6, 1H-Indole-1-acetic acid, 3-[[2-butyl-1-[[4-(1H-tetrazol-5-yl)phenyl]methyl]-1H-imidazol-5yl]methylene]-2,3-dihydro-2-oxo-, methyl ester] — 4.8-fold lower, 25 nM
- CCCCc1ncc(C=C2C(=O)N(CC(=O)OCC)c3ccccc32)n1Cc1ccc(-c2nnn[nH]2)cc1 [Example 6A, 1H-Indole-1-acetic acid, 3-[[2-butyl-1-[[4-(1H-tetrazol-5-yl)phenyl]methyl]-1H-imidazol-5yl]methylene]-2,3-dihydro-2-oxo-, ethyl ester] — 10-fold lower, 12 nM
- CCCCc1ncc(C=C2C(=O)N(CC(=O)O)c3ccccc32)n1Cc1ccc(-c2nnn[nH]2)cc1 [Example 7, 3-[[2-butyl-3-[[4-(1H-tetrazol-5-yl)phenyl]methyl]-3H-imidazol-4-yl]methylene]-2,3-dihydro-2-oxo-1H-indole-1-acetic acid] — 21-fold lower, 5.7 nM
- CCCc1ncc(/C=C2\C(=O)N(CC(=O)OC)C(=O)c3ccccc32)n1Cc1ccc(C(=O)OC)cc1 [Example 8, 2(1H)-Isoquinolineacetic acid, 3,4-dihydro-4-[[1-[[4-(methoxycarbonyl)phenyl]methyl]-2-propyl-1H-imidazol-5-yl]methylene]-1,3-dioxo-, methyl ester, (Z)] — 2.6-fold lower, 47 nM
- CCCc1ncc(/C=C2/C(=O)N(CC(=O)O)c3ccccc32)n1Cc1ccc(C(=O)O)cc1 [Example 9, (E)-3-[[3-[(4-carboxyphenyl)methyl]-2-propyl-3H-imidazol-4-yl]methylene]-2,3-dihydro-2-oxo-1H-indole-1-acetic acid] — within 1.5-fold, 98 nM
